Columns and labels:
[1] = Water content and solid form of amorphous cinacalcet HCl after exposure to humidity (KF titration, PXRD); format: physicochemical; conditions: 100 percent relative humidity; for Solid form by PXRD after exposure to humidity (physical stability): hydrochloride
Experimental: (§1) Powder X-Ray powder diffraction data were obtained using a SCINTAG powder X-Ray diffractometer model X'TRA equipped with a solid state detector and a variable gonimeter. Copper radiation of 1.5418 Å was used. A round standard aluminum sample holder with round zero background, and cavity of 25(diameter)*0.5(dept) mm. Scanning parameters were in the range of 2-40°2θ and a continuous scan rate of 3°/min.
100 mg amorphous cinacalcet HCl was spread as a thin layer, and exposed to 100 percent relative humidity for 8 days. The sample was than tested by PXRD and by Karl Fischer (“KF”) titration. Amorphous cinacalcet HCl was obtained with water content of 1.4 percent.

[2] = Stability of amorphous cinacalcet HCl on storage at ambient temperature (PXRD); format: physicochemical; conditions: stored at ambient temperature in a closed bottle for 2 months, hydrochloride
Experimental: as §1, with “SCINTAG” left out, “Å” for “Å”

Water content by Karl Fischer titration after exposure to humidity ([1]; 100 mg spread as a thin layer, 8 days): 1.4% | Solid form by PXRD after exposure to humidity (physical stability) ([1]; 8 days, listed as Amorphous cinacalcet): stable at high humidity levels | Solid form by PXRD after exposure to humidity (physical stability) ([1]; 8 days, listed as amorphous cinacalcet HCl): Amorphous | Hygroscopicity ([1]; as shown in Example 2): non-hygroscopic | Solid form by PXRD after storage (physical stability) [2]: amorphous content | Solid form by PXRD after storage (physical stability) ([2]; listed as Amorphous cinacalcet): stable under prolonged storage
Compound: C[C@@H](NCCCc1cccc(C(F)(F)F)c1)c1cccc2ccccc12.Cl [Amorphous Cinacalcet HCl, Cinacalcet hydrochloride]

From US7368606B2, “Amorphous cinacalcet hydrochloride and preparation thereof” (Teva Pharmaceutical Industries Ltd., priority 2005, dated 2008)
